ChEMBL document CHEMBL2311464, “Potent inhibitors of CDK5 derived from roscovitine: synthesis, biological evaluation and molecular modelling” (Bioorg Med Chem Lett, 2013)

Experiments:
[1] = Inhibition of porcine brain CK1 delta/epsilon using RRKHAAIGpSAYSITA as substrate measured after 30 mins by scintillation counting; set-up: species or system Sus scrofa
cells = conditions: Homo sapiens, SH-SY5Y, 48 h
Description: Cytotoxicity against human SH-SY5Y cells after 48 hrs by MTS assay

[2] = molecular target: Cyclin-dependent kinase 2/cyclin A (Homo sapiens, UniProt P24941); assay: Inhibition of recombinant human CDK2/cyclin A after 30 mins by scintillation counting; format: protein-complex assay
[3] = molecular target: Cyclin-dependent kinase 5/CDK5 activator 1 (Homo sapiens, UniProt Q00535); assay: Inhibition of recombinant human CDK5/p25 after 30 mins by scintillation counting; format: protein-complex assay
Chain of Cyclin-dependent kinase 5/CDK5 activator 1 (Q00535 whole entry): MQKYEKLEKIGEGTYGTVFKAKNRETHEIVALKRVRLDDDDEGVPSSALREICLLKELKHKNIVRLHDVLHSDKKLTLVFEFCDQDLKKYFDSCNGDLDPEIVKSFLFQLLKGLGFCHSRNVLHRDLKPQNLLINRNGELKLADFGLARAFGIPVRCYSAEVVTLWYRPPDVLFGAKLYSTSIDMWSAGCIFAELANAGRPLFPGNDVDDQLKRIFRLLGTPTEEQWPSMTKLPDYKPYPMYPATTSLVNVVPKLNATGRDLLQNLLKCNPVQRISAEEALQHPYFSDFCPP
Chain of Cyclin-dependent kinase 5/CDK5 activator 1 (Q15078 whole entry, further chain): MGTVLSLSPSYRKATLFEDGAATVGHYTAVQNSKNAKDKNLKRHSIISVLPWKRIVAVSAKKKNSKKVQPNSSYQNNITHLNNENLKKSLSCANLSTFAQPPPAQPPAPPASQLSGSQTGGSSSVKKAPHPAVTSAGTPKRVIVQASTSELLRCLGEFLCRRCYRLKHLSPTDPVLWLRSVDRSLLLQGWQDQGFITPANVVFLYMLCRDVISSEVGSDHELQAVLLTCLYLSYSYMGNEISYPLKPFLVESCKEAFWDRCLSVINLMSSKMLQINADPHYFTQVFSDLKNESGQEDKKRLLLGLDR

[4] = molecular target: Glycogen synthase kinase-3 (Sus scrofa, UniProt B2LUN4+I6LNT8); assay: Inhibition of porcine GSK-3alpha/beta using YRRAAVPPSPSLSRHSSPHQSpEDEEE as substrate measured after 30 mins by scintillation counting
[5] = molecular target: Cyclin-dependent kinase 1/cyclin B1 (Homo sapiens, UniProt P06493); assay: Inhibition of CDK2/cyclin B (unknown origin) after 30 mins by scintillation counting
Chain of Cyclin-dependent kinase 1/cyclin B1 (P06493 whole entry): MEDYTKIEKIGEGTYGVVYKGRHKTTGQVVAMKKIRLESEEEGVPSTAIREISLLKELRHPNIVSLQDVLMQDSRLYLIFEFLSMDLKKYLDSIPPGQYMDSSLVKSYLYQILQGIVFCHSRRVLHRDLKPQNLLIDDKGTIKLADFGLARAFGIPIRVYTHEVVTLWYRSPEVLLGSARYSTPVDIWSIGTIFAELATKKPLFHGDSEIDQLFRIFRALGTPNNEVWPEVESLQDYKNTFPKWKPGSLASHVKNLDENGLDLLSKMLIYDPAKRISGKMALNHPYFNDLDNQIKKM
Chain of Cyclin-dependent kinase 1/cyclin B1 (P14635 whole entry, further chain): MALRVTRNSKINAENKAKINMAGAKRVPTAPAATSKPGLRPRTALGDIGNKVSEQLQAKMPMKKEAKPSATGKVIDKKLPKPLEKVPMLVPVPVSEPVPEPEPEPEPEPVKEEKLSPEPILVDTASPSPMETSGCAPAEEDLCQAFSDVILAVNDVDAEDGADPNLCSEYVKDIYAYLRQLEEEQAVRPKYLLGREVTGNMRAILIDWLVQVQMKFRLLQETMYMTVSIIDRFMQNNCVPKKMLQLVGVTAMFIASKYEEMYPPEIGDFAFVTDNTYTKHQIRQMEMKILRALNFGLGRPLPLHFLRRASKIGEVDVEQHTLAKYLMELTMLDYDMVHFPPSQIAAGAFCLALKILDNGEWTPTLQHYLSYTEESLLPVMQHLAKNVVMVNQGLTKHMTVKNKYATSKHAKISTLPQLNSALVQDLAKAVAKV

Sus scrofa = species on record: Sus scrofa; assay: Inhibition of porcine brain CK1 delta/epsilon using RRKHAAIGpSAYSITA as substrate at 0.1 uM measured after 30 mins by scintillation counting
[6] = molecular target: Dual specificity tyrosine-phosphorylation-regulated kinase 1A (Homo sapiens, UniProt Q13627); assay: Inhibition of recombinant GST-fused human DYRK1A expressed in Escherichia coli using KKISGRLSPIMTEQ as substrate
SH-SY5Y [7] = assay: Ratio of roscovitine IC50 to compound IC50 for human SH-SY5Y cells after 48 hrs by MTS assay; format: functional
SH-SY5Y [8] = assay: Ratio of DRF53 IC50 to compound IC50 for human SH-SY5Y cells after 48 hrs by MTS assay; format: functional

SMILES	IC50 [1] [nM]	IC50 (cells) [nM]	IC50 [2] [nM]	IC50 [3] [nM]	IC50 [4] [nM]	IC50 [5] [nM]	inhibition (Sus scrofa) [%]	IC50 [6] [nM]	Ratio IC50 (SH-SY5Y [7])	Ratio IC50 (SH-SY5Y [8])
CC[C@H](CO)Nc1nc(NCc2ccccc2)c2ncn(C(C)C)c2n1 [SELICICLIB]	2300	17400	–	–	–	–	–	–	–	–
CC[C@@H](CO)Nc1nc(Nc2ccncc2)c2ncn(C(C)C)c2n1	> 1000	1800	50	50	6000	–	–	–	–	–
CC[C@H](CO)Nc1nc(Nc2cccc(-c3ccccn3)c2)c2ncn(C(C)C)c2n1	14	–	–	80	–	220	–	–	–	–
CC[C@@H](CO)Nc1nc(Nc2ccccn2)c2ncn(C(C)C)c2n1	12000	1800	530	4100	21000	–	–	–	–	–
CC[C@H](CO)Nc1nc(Nc2cncnc2)c2ncn(C(C)C)c2n1	600	1800	18	42	> 10000	–	–	–	–	–
CC(C)[C@H](CO)Nc1nc(Nc2ncccn2)c2ncn(C(C)C)c2n1	> 10000	1800	> 10000	> 10000	> 10000	–	–	–	–	–
CC[C@@H](CO)Nc1nc(Nc2cncnc2)c2ncn(C(C)C)c2n1	930	1800	23	76	> 10000	–	–	–	–	–
CC[C@@H](CO)Nc1nc(Nc2ncccn2)c2ncn(C(C)C)c2n1	> 10000	1800	7300	11000	> 10000	–	–	–	–	–
CC(C)[C@H](CO)Nc1nc(Nc2cccc(Cl)c2)c2ncn(C(C)C)c2n1	–	–	–	–	–	–	100	–	–	–
CC(C)[C@H](CO)Nc1nc(Nc2ccnnc2)c2ncn(C(C)C)c2n1	800	1800	28	41	6000	–	–	–	–	–
CC(C)n1cnc2c(Nc3ncccn3)nc(Cl)nc21	8000	1800	> 10000	> 10000	> 10000	–	–	> 10000	5	5
CC(C)[C@H](CO)Nc1nc(Nc2ccncn2)c2ncn(C(C)C)c2n1	2800	1800	330	730	> 10000	–	–	–	–	–
CC(C)[C@H](CO)Nc1nc(Nc2ccncc2)c2ncn(C(C)C)c2n1	1800	1800	20	21	12000	–	–	–	–	–
CC[C@H](CO)Nc1nc(Nc2cccnc2)c2ncn(C(C)C)c2n1	1000	1800	50	25	10000	–	–	–	–	–
CC(C)[C@@H](CO)Nc1nc(Nc2ccncc2)c2ncn(C(C)C)c2n1	3300	1800	130	200	7800	–	–	–	–	–
CC(C)n1cnc2c(Nc3ccncc3)nc(Cl)nc21	2100	1800	700	7400	18000	–	–	–	–	–
CC(C)[C@@H](CO)Nc1nc(Nc2ccncn2)c2ncn(C(C)C)c2n1	4900	1800	790	3200	22000	–	–	–	–	–
CC(C)[C@@H](CO)Nc1nc(Nc2ccccn2)c2ncn(C(C)C)c2n1	11000	1800	1200	1900	> 10000	–	–	–	–	–
CC(C)[C@@H](CO)Nc1nc(Nc2cncnc2)c2ncn(C(C)C)c2n1	2000	1800	110	370	16000	–	–	–	–	–
CC[C@@H](CO)Nc1nc(Nc2ccnnc2)c2ncn(C(C)C)c2n1	1000	1800	29	42	7300	–	–	–	–	–

SMILES	IC50 [1] [nM]	IC50 (cells) [nM]	IC50 [2] [nM]	IC50 [3] [nM]	IC50 [4] [nM]	IC50 [5] [nM]	inhibition (Sus scrofa) [%]	IC50 [6] [nM]	Ratio IC50 (SH-SY5Y [7])	Ratio IC50 (SH-SY5Y [8])
CC(C)n1cnc2c(Nc3cncnc3)nc(Nc3cncnc3)nc21	220	1800	170	360	> 10000	–	–	–	–	–
CC(C)[C@H](CO)Nc1nc(Nc2ccccn2)c2ncn(C(C)C)c2n1	6200	1800	800	1100	> 10000	–	–	–	–	–
CC[C@H](CO)Nc1nc(Nc2ccncc2)c2ncn(C(C)C)c2n1	1000	1800	38	17	> 10000	–	–	–	–	–
CC(C)[C@@H](CO)Nc1nc(Nc2cccnc2)c2ncn(C(C)C)c2n1	2700	1800	120	300	> 10000	–	–	–	–	–
CC(C)n1cnc2c(Nc3ccncn3)nc(Cl)nc21	8000	1800	13000	> 10000	> 10000	–	–	> 10000	5	5
CC[C@@H](CO)Nc1nc(Nc2cccnc2)c2ncn(C(C)C)c2n1	2000	1800	14	90	> 10000	–	–	–	–	–
CC[C@H](CO)Nc1nc(Nc2ccnnc2)c2ncn(C(C)C)c2n1	500	1800	72	60	13000	–	–	–	–	–
CC(C)n1cnc2c(Nc3cccnc3)nc(Cl)nc21	2100	1800	680	1100	> 10000	–	–	–	–	–
CC(C)n1cnc2c(Nc3cnccn3)nc(Cl)nc21	7000	1800	3100	12000	> 10000	–	–	–	–	–
CC(C)[C@H](CO)Nc1nc(Nc2cccnc2)c2ncn(C(C)C)c2n1	2200	1800	18	22	7300	–	–	–	–	–
CC[C@H](CO)Nc1nc(Nc2ccccn2)c2ncn(C(C)C)c2n1	6200	1800	1000	2300	33000	–	–	–	–	–
CC(C)n1cnc2c(Nc3ccccn3)nc(Cl)nc21	3000	1800	6200	2100	> 10000	–	–	–	–	–
CC(C)[C@@H](CO)Nc1nc(Nc2ncccn2)c2ncn(C(C)C)c2n1	> 10000	1800	9000	10000	> 10000	–	–	–	–	–
CC[C@H](CO)Nc1nc(Nc2ncccn2)c2ncn(C(C)C)c2n1	> 10000	1800	> 10000	> 10000	> 10000	–	–	–	–	–
CC(C)[C@@H](CO)Nc1nc(Nc2ccnnc2)c2ncn(C(C)C)c2n1	1900	1800	120	230	4300	–	–	–	–	–
CC(C)n1cnc2c(Nc3cncnc3)nc(Cl)nc21	2300	1800	180	2800	> 10000	–	–	–	–	–
CC[C@@H](CO)Nc1nc(Nc2ccncn2)c2ncn(C(C)C)c2n1	8300	–	2000	–	> 10000	–	–	–	–	–
CC(C)n1cnc2c(Nc3ccnnc3)nc(Cl)nc21	1100	1800	1600	3000	> 10000	–	–	–	–	–
CC[C@H](CO)Nc1nc(Nc2ccncn2)c2ncn(C(C)C)c2n1	5800	–	1200	–	> 10000	–	–	–	–	–
CC(C)[C@H](CO)Nc1nc(Nc2cncnc2)c2ncn(C(C)C)c2n1	1300	1800	20	38	5000	–	–	–	–	–
